Tests used:
HEK293 cells [1] = test: Preliminary screening as DNA vectors, GFP transfection of HEK293 cells; type: cell-based; settings: HEK293 cells; lipid/DOPE liposome with 75 ng plasmid DNA (psin-EGFP-IRES-Puro); number of cells expressing GFP divided by total number of nuclei (Hoechst)
Procedure, shortened: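 HEK293 cells in DMEM/10% FBS transfected with 75 ng EGFP plasmid per well complexed with amino lipid/DOPE liposomes in pH 5.6 sodium acetate. Hoechst nuclear stain added 20-24 h post-transfection, then cells cultured another 20-24 h. Confocal imaging gives GFP-positive cells as % of total nuclei.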

HEK293 cells [2] = test: Preliminary screening as mRNA vectors, EGFP mRNA transfection of HEK293 cells; type: cell-based; settings: HEK293 cells, 96-well plates, EGFP mRNA 50 ng per well; percentage of GFP fluorescent cells relative to total number of cells (Hoechst)
Procedure, shortened: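 HEK293 cells in DMEM plus 10% FBS transfected in 96-well format with 50 ng EGFP mRNA per well; Lipofectamine2000 served as positive control. Read-out is the percentage of GFP-fluorescent cells among total cells, counted by Hoechst nuclear stain.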

Compound	Absolute DNA transfection efficiency in HEK293 cells (HEK293 cells [1])	Absolute mRNA transfection efficiency in HEK293 cells (HEK293 cells [2])
CCCCCCCCCCCCCNc1nc(NCCCCCCC)nc(NCCN2CCOCC2)n1 [Compound N7N13D2]	0.1%	0.0%
CCCCCCCCCCCCCNc1nc(NCCCCCCC)nc(NCCN2CCCC2)n1 [Compound N7N13D3]	0.0%	7.8%
CCCCCCCCCCCCCNc1nc(NCCCCCCC)nc(NCCN2CCCCC2)n1 [Compound N7N13D4]	0.0%	0.3%
CCCCCCCCCCCCCNc1nc(NCCCCCCC)nc(NCCN2CCN(C)CC2)n1 [Compound N7N13D5]	0.9%	0.9%
CCCCCCCCCCCCCNc1nc(NCCCCCCC)nc(NCCCN(C)C)n1 [Compound N7N13D6]	1.6%	2.3%
CCCCCCCCCCCCCNc1nc(NCCCCCCC)nc(NCCN(CC)CC)n1 [Compound N7N13D7]	0.1%	0.0%
CCCCCCCCCCCCCNc1nc(NCCCCCCC)nc(NCCCN2CCOCC2)n1 [Compound N7N13D8]	0.0%	0.1%
CCCCCCCCCCCCCNc1nc(NCCCCCCC)nc(NCCCN2CCN(C)CC2)n1 [Compound N7N13D9]	1.3%	0.1%
CCCCCCCCCCCCCNc1nc(NCCCCCCC)nc(NCC2CCN(C)CC2)n1 [Compound N7N13D10]	1.6%	1.6%
CCCCCCCCCCCCCCCNc1nc(NCCCCCCC)nc(NCCN(C)C)n1 [Compound N7N15D1]	1.0%	1.3%
CCCCCCCCCCCCCCCNc1nc(NCCCCCCC)nc(NCCN2CCOCC2)n1 [Compound N7N15D2]	0.0%	0.1%
CCCCCCCCCCCCCCCNc1nc(NCCCCCCC)nc(NCCN2CCCC2)n1 [Compound N7N15D3]	5.2%	3.8%
CCCCCCCCCCCCCCCNc1nc(NCCCCCCC)nc(NCCN2CCCCC2)n1 [Compound N7N15D4]	0.2%	0.0%
CCCCCCCCCCCCCCCNc1nc(NCCCCCCC)nc(NCCN2CCN(C)CC2)n1 [Compound N7N15D5]	0.0%	0.0%
CCCCCCCCCCCCCCCNc1nc(NCCCCCCC)nc(NCCCN(C)C)n1 [Compound N7N15D6]	1.6%	1.2%
CCCCCCCCCCCCCCCNc1nc(NCCCCCCC)nc(NCCN(CC)CC)n1 [Compound N7N15D7]	0.0%	0.0%
CCCCCCCCCCCCCCCNc1nc(NCCCCCCC)nc(NCCCN2CCOCC2)n1 [Compound N7N15D8]	0.2%	0.2%
CCCCCCCCCCCCCCCNc1nc(NCCCCCCC)nc(NCCCN2CCN(C)CC2)n1 [Compound N7N15D9]	0.6%	0.7%
CCCCCCCCCCCCCCCNc1nc(NCCCCCCC)nc(NCC2CCN(C)CC2)n1 [Compound N7N15D10]	0.6%	2.5%
CCCCCCCCCCCCCCCCNc1nc(NCCCCCCC)nc(NCCN(C)C)n1 [Compound N7N16D1]	0.9%	0.5%
CCCCCCCCCCCCCCCCNc1nc(NCCCCCCC)nc(NCCN2CCOCC2)n1 [Compound N7N16D2]	0.0%	0.1%
CCCCCCCCCCCCCCCCNc1nc(NCCCCCCC)nc(NCCN2CCCC2)n1 [Compound N7N16D3]	2.3%	1.3%

Compound	Absolute DNA transfection efficiency in HEK293 cells (HEK293 cells [1])	Absolute mRNA transfection efficiency in HEK293 cells (HEK293 cells [2])
CCCCCCCCCCCCCCCCNc1nc(NCCCCCCC)nc(NCCN2CCCCC2)n1 [Compound N7N16D4]	0.0%	0.0%
CCCCCCCCCCCCCCCCNc1nc(NCCCCCCC)nc(NCCN2CCN(C)CC2)n1 [Compound N7N16D5]	0.3%	0.0%
CCCCCCCCCCCCCCCCNc1nc(NCCCCCCC)nc(NCCCN(C)C)n1 [Compound N7N16D6]	0.6%	5.0%
CCCCCCCCCCCCCCCCNc1nc(NCCCCCCC)nc(NCCN(CC)CC)n1 [Compound N7N16D7]	0.0%	0.4%
CCCCCCCCCCCCCCCCNc1nc(NCCCCCCC)nc(NCCCN2CCOCC2)n1 [Compound N7N16D8]	0.1%	0.0%
CCCCCCCCCCCCCCCCNc1nc(NCCCCCCC)nc(NCCCN2CCN(C)CC2)n1 [Compound N7N16D9]	0.0%	0.0%
CCCCCCCCCCCCCCCCNc1nc(NCCCCCCC)nc(NCC2CCN(C)CC2)n1 [Compound N7N16D10]	1.8%	3.1%
CCCCCCCCCCCCCCCCCCNc1nc(NCCCCCCC)nc(NCCN(C)C)n1 [Compound N7N18D1]	1.0%	2.3%
CCCCCCCCCCCCCCCCCCNc1nc(NCCCCCCC)nc(NCCN2CCOCC2)n1 [Compound N7N18D2]	0.0%	0.0%
CCCCCCCCCCCCCCCCCCNc1nc(NCCCCCCC)nc(NCCN2CCCC2)n1 [Compound N7N18D3]	5.0%	0.1%
CCCCCCCCCCCCCCCCCCNc1nc(NCCCCCCC)nc(NCCN2CCCCC2)n1 [Compound N7N18D4]	0.2%	0.1%
CCCCCCCCCCCCCCCCCCNc1nc(NCCCCCCC)nc(NCCN2CCN(C)CC2)n1 [Compound N7N18D5]	0.7%	0.1%
CCCCCCCCCCCCCCCCCCNc1nc(NCCCCCCC)nc(NCCCN(C)C)n1 [Compound N7N18D6]	0.7%	1.1%
CCCCCCCCCCCCCCCCCCNc1nc(NCCCCCCC)nc(NCCN(CC)CC)n1 [Compound N7N18D7]	0.0%	0.0%
CCCCCCCCCCCCCCCCCCNc1nc(NCCCCCCC)nc(NCCCN2CCOCC2)n1 [Compound N7N18D8]	0.2%	0.2%
CCCCCCCCCCCCCCCCCCNc1nc(NCCCCCCC)nc(NCCCN2CCN(C)CC2)n1 [Compound N7N18D9]	2.1%	0.5%
CCCCCCCCCCCCCCCCCCNc1nc(NCCCCCCC)nc(NCC2CCN(C)CC2)n1 [Compound N7N18D10]	15.6%	73.8%
CCCCCCCCNc1nc(NCCCCCCCC)nc(NCCN(C)C)n1 [Compound N8N8D1]	2.3%	0.0%
CCCCCCCCNc1nc(NCCCCCCCC)nc(NCCN2CCOCC2)n1 [Compound N8N8D2]	0.0%	0.0%
CCCCCCCCNc1nc(NCCCCCCCC)nc(NCCN2CCCC2)n1 [Compound N8N8D3]	1.8%	0.4%
CCCCCCCCNc1nc(NCCCCCCCC)nc(NCCN2CCCCC2)n1 [Compound N8N8D4]	0.0%	0.2%
